The values that follow come from publication PMC8811955 (Biochemistry, 2022).

The subject of the assay is ySB267 (OSR4p-SEC4, Ca.Ste2). Briefly: Peptide concentration-dependent growth of ySB267. As to conditions: ySB267, tested concentrations, 20 h. It is filed as cell-based, Saccharomyces cerevisiae.

GFRLTNFGYFEPG [Ca peptide]: the “Peptide concentration above which maximum growth rate was reached” value was greater than 2.5 nM.
